Test results from PMC3335202 (Journal of Medicinal Chemistry, 2012).

Assays:
[1] = tested on: Human embryonic stem cell H9 lines carrying MYH6-mCherry reporters; test: hESC cardiogenesis assay; format: cell-based; settings: hESCs, dose-response behaviour
[2] = Chemical stability in phosphate buffer; format: physicochemical; settings: 10 μM, phosphate buffer pH 7.4, up to 30 hours, HPLC
[3] = tested on: β-catenin-dependent canonical Wnt pathway; test: Wnt inhibition assay; format: cell-based, human; settings: Homo sapiens, HEK-293T, Wnt inhibition, HEK293T cells

Structure (SMILES) | induction of cardiogenesis (class in words) [1] | degradation in phosphate buffer [2] | IC50 [3] [nM]
CC(=O)c1ccccc1NC(=O)[C@H]1CC[C@H](N2C(=O)[C@@H]3[C@@H]4CC[C@@H](C4)[C@@H]3C2=O)CC1 [Compound 28, 4-(cis-endo-1,3-Dioxooctahydro-2H-4,7-methanoisoindol-2-yl)-N-(2-acetylphenyl)-trans-cyclohexyl carboxamide] | potent stimulators of cardiogenesis | No degradation was observed | –
O=C1[C@@H]2[C@@H]3CC[C@@H](C3)[C@@H]2C(=O)N1[C@H]1CC[C@H](C(=O)Nc2cccnc2)CC1 [Compound 32, 4-(cis-endo-(1,3-Dioxooctahydro-2H-4,7-methanoisoindol-2-yl))-N-(pyridin-3-yl)-trans-cyclohexyl carboxamide] | functionally inactive as inducers of cardiogenesis | No degradation was observed | ~100
